The text below walks through data of ChEMBL document CHEMBL3217621, “Diaryl ether derivatives as anticancer agents a review” (Medchemcomm, 2012).

Structures are written as SMILES.

The IC50 is the point on the concentration scale where inhibition reaches its midpoint. The term half-life denotes the time in which the quantity being followed falls by half. What is called AUC is the area under the concentration-time curve, a measure of exposure.

Data set [1] in a line: Inhibition of GGPTase-1 (unknown origin). The arrangement: species or system Homo sapiens.
The subject of another data set is HUVEC. The data set is described as follows: Antiproliferative activity against bFGF-treated HUVEC. Type of data set: functional, cell-based. The settings on record: Homo sapiens.
A short description of data set [2]: Selectivity index, ratio of IC50 for human KB3-1 cells to IC50 for bFGF-treated HUVEC. Also noted: species or system KB 3-1.
Data set [3] in a line: Half life in cynomolgus monkey at 3 mg/kg, iv. Also noted: dose 3 mg/kg, route intravenous. The data set is classed as ADME, organism-based, Macaca fascicularis. The settings on record: in vivo.
Data set [4] in a line: Cytotoxicity against human MOLT3 cells. The settings on record: MOLT-3. Type of data set: functional, cell-based.
The test system of another data set is HL-60. Put plainly: Cytotoxicity against human HL60 cells. Type of data set: functional, cell-based.
Data set [5] is described as follows: AUC in cynomolgus monkey at 3 mg/kg, po. The data set is classed as ADME, organism-based, Macaca fascicularis. The arrangement: dose 3 mg/kg, route oral. The settings on record: plasma.
Data set [6] deals with PC-3. Put plainly: Cytotoxicity against human PC3 cells assessed as growth inhibition after 48 hrs by MTT assay. As to conditions: PC-3, 48 h. The data set is classed as functional, cell-based.
For data set [7], the system named is PC-3. The data set is described as follows: Induction of apoptosis in human PC3 cells at 10 uM after 24 hrs by propidium iodide/Hochest33342 staining-based flow cytometry (reference value: 0.05%). Type of data set: functional. On the technique in general: In flow cytometry, cells or beads pass a laser one at a time.
A short description of data set [8]: Cytotoxicity against human RPE1 cells assessed as cell viability after 24 to 72 hrs by MTT assay. Type of data set: cell-based, TERT-RPE1. The settings on record: RPE-1.
A further data set deals with T1, Interstitial collagenase (Homo sapiens, UniProt P03956).
T1 sequence (P03956 whole entry): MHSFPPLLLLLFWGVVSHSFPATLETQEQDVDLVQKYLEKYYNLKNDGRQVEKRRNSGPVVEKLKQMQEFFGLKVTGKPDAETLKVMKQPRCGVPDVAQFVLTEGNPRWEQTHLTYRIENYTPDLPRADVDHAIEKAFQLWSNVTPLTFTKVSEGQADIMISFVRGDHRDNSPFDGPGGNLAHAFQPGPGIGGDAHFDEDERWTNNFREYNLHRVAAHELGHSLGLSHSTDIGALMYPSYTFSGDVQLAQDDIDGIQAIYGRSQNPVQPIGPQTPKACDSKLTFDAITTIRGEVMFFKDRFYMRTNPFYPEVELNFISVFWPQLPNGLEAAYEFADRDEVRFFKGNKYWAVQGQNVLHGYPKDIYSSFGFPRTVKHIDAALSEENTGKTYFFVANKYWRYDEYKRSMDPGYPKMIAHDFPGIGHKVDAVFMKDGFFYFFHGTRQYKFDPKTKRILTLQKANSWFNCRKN
The data set is described as follows: Inhibition of MMP-1 (unknown origin).

Data set [9] deals with 72 kDa type IV collagenase (Homo sapiens, UniProt P08253). The data set is described as follows: Inhibition of MMP-2 (unknown origin).
72 kDa type IV collagenase, sequence (P08253 whole entry): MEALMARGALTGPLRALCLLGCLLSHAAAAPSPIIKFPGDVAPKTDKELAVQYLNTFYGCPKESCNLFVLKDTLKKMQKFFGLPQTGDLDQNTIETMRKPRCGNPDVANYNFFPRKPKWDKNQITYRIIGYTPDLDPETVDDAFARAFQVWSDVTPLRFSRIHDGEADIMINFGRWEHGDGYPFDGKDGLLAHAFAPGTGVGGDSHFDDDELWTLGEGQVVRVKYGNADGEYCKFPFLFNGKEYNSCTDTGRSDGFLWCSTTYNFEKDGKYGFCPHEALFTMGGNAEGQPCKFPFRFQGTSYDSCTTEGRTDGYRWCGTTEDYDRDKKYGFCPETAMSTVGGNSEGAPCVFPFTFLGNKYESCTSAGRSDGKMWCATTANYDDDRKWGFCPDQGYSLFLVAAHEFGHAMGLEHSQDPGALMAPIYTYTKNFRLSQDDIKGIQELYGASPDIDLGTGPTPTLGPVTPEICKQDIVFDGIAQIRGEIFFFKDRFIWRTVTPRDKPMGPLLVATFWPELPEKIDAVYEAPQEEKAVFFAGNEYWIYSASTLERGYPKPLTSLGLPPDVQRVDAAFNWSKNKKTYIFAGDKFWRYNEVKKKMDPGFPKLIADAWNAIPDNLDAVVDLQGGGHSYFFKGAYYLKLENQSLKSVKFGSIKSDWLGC
Data set [10] concerns the target Matrix metalloproteinase-9 (Homo sapiens, UniProt P14780). The data set is described as follows: Inhibition of MMP-9 (unknown origin).
Another data set has as its system P388. The data set is described as follows: Cytotoxicity against mouse P388 cells assessed as growth inhibition after 5 days by MTT assay. Type of data set: functional, cell-based. The settings on record: P388, 120 h. Background: Tetrazolium dyes change colour on reduction, which living cells bring about.
A further data set addresses T2, Aromatase (Homo sapiens, UniProt P11511).
T2 sequence (P11511 whole entry): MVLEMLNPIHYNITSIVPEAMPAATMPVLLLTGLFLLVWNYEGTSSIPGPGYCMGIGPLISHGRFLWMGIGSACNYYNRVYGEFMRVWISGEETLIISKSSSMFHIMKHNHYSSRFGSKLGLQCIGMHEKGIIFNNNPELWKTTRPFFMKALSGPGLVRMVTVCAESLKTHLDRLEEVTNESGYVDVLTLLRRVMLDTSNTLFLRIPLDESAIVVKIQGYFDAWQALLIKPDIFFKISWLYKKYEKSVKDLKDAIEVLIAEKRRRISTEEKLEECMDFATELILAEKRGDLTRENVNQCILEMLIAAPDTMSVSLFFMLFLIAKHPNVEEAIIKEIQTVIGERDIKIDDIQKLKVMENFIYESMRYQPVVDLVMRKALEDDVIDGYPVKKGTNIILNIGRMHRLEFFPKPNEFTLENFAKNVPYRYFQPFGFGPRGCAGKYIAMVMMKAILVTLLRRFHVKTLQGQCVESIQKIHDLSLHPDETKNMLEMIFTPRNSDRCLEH
Put plainly: Inhibition of aromatase (unknown origin).

Matrix metalloproteinase-9, sequence (P14780 whole entry): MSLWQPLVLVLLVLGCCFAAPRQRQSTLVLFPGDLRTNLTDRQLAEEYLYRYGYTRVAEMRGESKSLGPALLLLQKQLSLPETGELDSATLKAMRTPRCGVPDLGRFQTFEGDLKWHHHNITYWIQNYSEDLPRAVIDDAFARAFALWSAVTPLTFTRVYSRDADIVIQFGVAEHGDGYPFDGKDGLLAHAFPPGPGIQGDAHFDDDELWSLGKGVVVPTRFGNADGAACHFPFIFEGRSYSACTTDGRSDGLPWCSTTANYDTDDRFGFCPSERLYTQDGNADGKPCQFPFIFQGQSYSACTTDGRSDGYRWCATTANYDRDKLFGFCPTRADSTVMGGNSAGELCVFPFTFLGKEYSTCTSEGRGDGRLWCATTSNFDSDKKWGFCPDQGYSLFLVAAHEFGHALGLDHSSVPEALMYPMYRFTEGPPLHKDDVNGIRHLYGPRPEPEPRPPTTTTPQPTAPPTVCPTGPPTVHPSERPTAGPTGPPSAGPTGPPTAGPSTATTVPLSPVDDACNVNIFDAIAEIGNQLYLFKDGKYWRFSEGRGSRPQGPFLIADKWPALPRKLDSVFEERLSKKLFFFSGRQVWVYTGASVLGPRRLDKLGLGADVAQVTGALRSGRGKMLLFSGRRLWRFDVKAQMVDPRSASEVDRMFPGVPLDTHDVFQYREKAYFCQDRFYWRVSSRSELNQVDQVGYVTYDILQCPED

As to `N#Cc1ccc(Cn2ccnc2)cc1Oc1ccccc1`, in [1], the IC50 stood at 3700 nM.

As for `O=C1NCCc2cc(Br)c(O)c(c2)Oc2ccc(cc2Br)CCNC(=O)/C(=N\O)Cc2cc(Br)c(O)c(c2)Oc2c(Br)cc(cc2Br)C/C1=N/O` [BASTADIN 5], the midpoint of inhibition with HUVEC, the IC50, lay at 62 nM. Besides, the “Ratio IC50” value in data set [2] stood at 76.

Regarding `CC[C@@]1(c2cccc(Oc3cc(Cn4ccnc4)ccc3C#N)c2)CCCCN(C)C1=O`, inhibition in [1] was half-maximal at 5.8 nM (IC50).

As for `CCC1(c2cccc(Oc3cc(Cc4cncn4C)ccc3C#N)c2)CCCCN(C)C1=O` (racemic), the midpoint of inhibition in data set [1], the IC50, lay at 10 nM.

For the compound `O=C1N/C=C/c2ccc(c(Br)c2)Oc2cc(cc(Br)c2O)CCNC(=O)/C(=N/O)Cc2ccc(c(Br)c2)Oc2cc(cc(Br)c2O)C/C1=N\O` [BASTADIN 7], in the data set with HUVEC, the midpoint of inhibition, the IC50, lay at 54 nM. For the same compound, the “Ratio IC50” value in data set [2] was 56.

As for `O=CN(O)C(COCCO)CS(=O)(=O)c1ccc(Oc2ccc(OC(F)(F)F)cc2)cc1` (stereo unspecified), the half-life in [3] was 115 min.

For `CCC1(c2cccc(Oc3cc(Cn4ccnc4)ccc3C#N)c2)CCCCN(C)C1=O` (racemic), the IC50 in [1] was 7.1 nM.

In turn, `O=C1NCCc2cc(Br)c(O)c(c2)Oc2c(Br)cc(cc2Br)CCNC(=O)/C(=N/O)Cc2cc(Br)c(O)c(c2)Oc2c(Br)cc(cc2Br)C/C1=N\O` [BASTADIN 6] displayed an IC50 in the data set with HUVEC of 52 nM. In addition, the “Ratio IC50” value in [2] is on record as 41.

For the compound `COc1cc([C@@H]2c3cc4c(cc3[C@@H](O[C@@H]3O[C@@H]5CO[C@@H](C)O[C@H]5[C@H](O)[C@H]3O)[C@H]3COC(=O)[C@H]23)OCO4)cc(OC)c1O` [ETOPOSIDE], the IC50 in data set [4] stood at 20 nM; in the data set with HL-60, 610 nM.

`COc1cccc(Oc2cc(Cn3ccnc3)ccc2C#N)c1OC` displayed a 50% inhibitory concentration (IC50) in data set [1] of 15000 nM.

Compound `O=CN(O)C(CS(=O)(=O)c1ccc(Oc2ccc(OC(F)(F)F)cc2)cc1)[C@H](O)CO` (stereo partly specified) gave a half-life in data set [3] of 60 min. This compound gave an AUC in data set [5] of 3 µM·h.

In the case of `COc1ccc(O)c2c1Oc1cccc(c1)CCc1ccc(O)c(c1)Oc1ccc(cc1)CC2`, the IC50 was determined as 5.45 µM in the data set with PC-3 [6] and 50 µM in data set [8]. Also, the Activity with PC-3 [7] worked out at 51.62%.

With `O=C1NCCc2ccc(c(Br)c2)Oc2cc(ccc2O)CCNC(=O)/C(=N/O)Cc2cc(Br)c(O)c(c2)Oc2c(Br)cc(cc2Br)C/C1=N\O` [BASTADIN 13], the IC50 in the data set on HUVEC worked out at 520 nM. Besides, the “Ratio IC50” value in data set [2] amounted to 14.

On to `CC[C@@]1(c2cccc(Oc3cc([C@](C)(N)c4cncn4C)ccc3C#N)c2)CCCCN(C)C1=O`, for which, in [1], 3.6 nM corresponded to half-maximal inhibition (IC50).

In turn, `O=C1NCCc2ccc(c(Br)c2)Oc2cc(cc(Br)c2O)CCNC(=O)/C(=N/O)Cc2cc(Br)c(O)c(c2)Oc2c(Br)cc(cc2Br)C/C1=N\O` [BASTADIN 19] displayed an IC50 in the data set with HUVEC of 120 nM. Further, the “Ratio IC50” value in data set [2] is listed as 19.

As to `COc1cc(C)cc(Oc2c(C)cc(OC)cc2OC)c1`, the IC50 in [4] is 1400 nM; in the data set on HL-60 it was 2200 nM.

In turn, `O=C1CCc2cc(Br)c(c(Br)c2)Oc2cc(ccc2O)CCC(=O)NCCc2cc(Br)c(c(Br)c2)Oc2cc(cc(Br)c2O)CCN1` registered an IC50 with HUVEC of 4000 nM. For the same compound, the “Ratio IC50” value in [2] stood at 1.6.

`CCC1(c2cccc(Oc3cc(C(C)(N)c4cncn4C)ccc3C#N)c2)CCCCN(C)C1=O` (mixture of isomers): the IC50 in data set [1] turned out to be 5.1 nM.

For `CC1(C)OC[C@H](CC(CS(=O)(=O)c2ccc(Oc3ccc(OC(F)(F)F)cc3)cc2)N(O)C=O)O1` (stereo partly specified), the IC50 is over 50 µM on Interstitial collagenase, 1.5 nM in [9] and 5.5 nM in data set [10]. The AUC in [5] was 2 µM·h.

In data set [1], `CCC1(c2cccc(Oc3cc(C(N)c4cncn4C)ccc3C#N)c2)CCCCN(C)C1=O` (stereo unspecified) displayed an IC50 of 8 nM.

With `COc1ccc(/C=C\c2cc(OC)c(OC)c(OC)c2)cc1O` [COMBRETASTATIN A4], the IC50 in the data set with P388 is 2.6 nM.

The compound `N#Cc1ccc(Cn2ccnc2)cc1Oc1ccc(Cl)cc1Cl` gave an IC50 in data set [1] of 280 nM.

For `C[C@@H]1OC(C)(C)O[C@H]1C(CS(=O)(=O)c1ccc(Oc2ccc(OC(F)(F)F)cc2)cc1)N(O)C=O` (stereo partly specified), the figures for the IC50 (against Interstitial collagenase; in data set [9]) were over 50 µM and 1.9 nM, respectively. The half-life in data set [3] was 1170 min. Besides, the AUC in data set [5] was 21 µM·h.

For `CC1(C)OC[C@H]([C@@H](CS(=O)(=O)c2ccc(Oc3ccc(OC(F)(F)F)cc3)cc2)N(O)C=O)O1`, in [3], the half-life was 1010 min. The same compound displayed an AUC in [5] of 53 µM·h.

The compound `N[C@@H]1Cc2cc(Br)c(c(Br)c2)Oc2cc(ccc2O)C[C@H](N)C(=O)NCCc2cc(Br)c(c(Br)c2)Oc2cc(cc(Br)c2O)CCNC1=O` gave an IC50 in the data set with HUVEC of 610 nM. In addition, the “Ratio IC50” value in data set [2] is 26.2.

In turn, `O=CN(O)C(CS(=O)(=O)c1ccc(Oc2ccc(OC(F)(F)F)cc2)cc1)C1CCC2(CC1)OCCO2` (stereo unspecified) came in with a concentration for half-maximal inhibition (IC50) at Interstitial collagenase of over 50 µM.

With `Nc1cc2cc(c1O)Oc1c(Br)cc(cc1Br)CCNC(=O)/C(=N/O)Cc1cc(N)c(O)c(c1)Oc1c(Br)cc(cc1Br)C/C(=N/O)C(=O)NCC2`, in the data set on HUVEC, the IC50 worked out at 960 nM. Also, in data set [2], the “Ratio IC50” value is reported as 3.4.

As to `COc1ccc2cc1Oc1ccc(cc1)CCc1ccc(c(O)c1)Oc1cccc(c1)CC2`, the values for the IC50 (in the data set with PC-3 [6]; in [8]) were 7.98 µM and 50 µM, respectively. Further, the Activity in the data set on PC-3 [7] is 9.4%.

As for `O=CN(O)C(Cc1ccc(C(=O)O)cc1)CS(=O)(=O)c1ccc(Oc2ccc(OC(F)(F)F)cc2)cc1` (stereo unspecified), the values for the IC50 (at Interstitial collagenase; in data set [9]; in [10]) were over 50 µM, 0.53 nM and 0.53 nM, respectively. Moreover, in data set [5], the AUC turned out to be 16 µM·h.

Regarding `O=C1N/C=C/c2ccc(c(Br)c2)Oc2cc(ccc2O)CCNC(=O)/C(=N/O)Cc2cc(Br)c(c(Br)c2)Oc2cc(cc(Br)c2O)C/C1=N\O` [BASTADIN 11], the IC50 in the data set on HUVEC worked out at 53 nM. The “Ratio IC50” value in data set [2] is 38.

Turning to `O=CN(O)C(CS(=O)(=O)c1ccc(Oc2ccc(OC(F)(F)F)cc2)cc1)[C@H]1CCCO1` (stereo partly specified), the IC50 was over 50 µM against Interstitial collagenase, 0.61 nM in [9] and 0.32 nM in data set [10]. For the same compound, in data set [5], the AUC is 26 µM·h.

In the case of `O=C1N/C=C/c2ccc(c(Br)c2)Oc2cc(cc(Br)c2O)CCNC(=O)/C(=N/O)Cc2cc(Br)c(c(Br)c2)Oc2cc(cc(Br)c2O)C/C1=N\O` [BASTADIN 4], the IC50 with HUVEC turned out to be 53 nM. The “Ratio IC50” value in data set [2] is reported as 38.

As for `Oc1ccc2c(c1)CCc1ccc(cc1)Oc1cc(ccc1O)CCc1ccc-2c(O)c1` [RICCARDI C], the IC50 stood at 3.22 µM in the data set with PC-3 [6] and 50 µM in data set [8]. The Activity with PC-3 [7] is reported as 6.21%.

At Aromatase, `Cc1cc(O)cc2c1Oc1cc(O)cc(C)c1C(=O)O2` displayed an IC50 of 5.3 µM.
